# “And” between values parts separate entries of the source, which are not always exact repeats. Equal entries are not always repeated. Marks after values point to notes of the source that are not given here.
# Experiment: LogP by HPLC on reversed phase columns (EEC directive 79/831 Annex V.A8)
# Format: physicochemical
# Details: for chromatographic logP: reversed phase HPLC column
# Procedure: [table] If more than one LogP value is available within the same method, all the values are given and separated by “+”. […] Lambda-max-values were determined using UV-spectra from 200 nm to 400 nm and the peak values of the chromatographic signals. Measurement of LogP values was performed as outlined above.
# [1] = [a] LC-UV, acidic range, 0.1% formic acid in water and acetonitrile as eluent
# [2] = [b] LC-UV, neutral range, 0.001 molar ammonium acetate solution in water and acetonitrile as eluent
SMILES,LogP [1],LogP [2],chromatographic logP [1],chromatographic logP [2]
OC(Cn1cncn1)(c1ccc(F)cc1F)C1(Oc2ccc(Cl)cc2F)CC1 (racemic) [Example I-01],3.52^[a];,3.50^[b],–,–
OC(Cn1cncn1)(c1ccc(F)cc1F)C1(Oc2ccc(F)cc2Cl)CC1 (racemic) [Example I-02],3.47^[a];,3.46^[b],–,–
OC(Cn1cncn1)(c1ccc(F)cc1F)C1(Oc2ccccc2F)CC1 (racemic) [Example I-03],3.04^[a],–,–,–
OC(Cn1cncn1)(c1ccc(F)cc1F)C1(Oc2ccccc2I)CC1 (racemic) [Example I-04],3.64^[a];,3.64^[b],–,–
OC(Cn1cncn1)(c1ccc(F)cc1F)C1(Oc2ccccc2Br)CC1 (racemic) [Example I-05],3.44^[a];,3.43^[b],–,–
OC(Cn1cncn1)(c1ccc(F)cc1F)C1(Oc2cccc(Br)c2)CC1 (racemic) [Example I-06],3.54^[a];,3.54^[b],–,–
OC(Cn1cncn1)(c1ccc(F)cc1F)C1(Oc2ccc(Br)cc2)CC1 (racemic) [Example I-07],3.59^[a];,3.59^[b],–,–
OC(Cn1cncn1)(c1ccc(F)cc1F)C1(Oc2ccc(I)cc2)CC1 (racemic) [Example I-08],3.78^[a];,3.80^[b],–,–
OC(Cn1cncn1)(c1ccc(F)cc1F)C1(Oc2ccc(Br)cc2F)CC1 (racemic) [Example I-09],3.56^[a];,3.54^[b],–,–
OC(Cn1cncn1)(c1ccc(F)cc1F)C1(Oc2ccccc2)CC1 (racemic) [Example I-11],3.67^[a];,3.71^[b],–,–
Cc1cc(I)ccc1OC1(C(O)(Cn2cncn2)c2ccc(F)cc2F)CC1 (racemic) [Example I-12],4.25^[a];,4.30^[b],–,–
Cc1cc(Br)ccc1OC1(C(O)(Cn2cncn2)c2ccc(F)cc2F)CC1 (racemic) [Example I-13],3.99^[a];,4.08^[b],–,–
OC(Cn1cncn1)(c1ccc(F)cc1F)C1(Oc2ccc(OC(F)(F)F)cc2)CC1 (racemic) [Example I-14],3.70^[a];,3.77^[b],–,–
OC(Cn1cncn1)(c1ccc(F)cc1F)C1(Oc2ccc(SC(F)(F)F)cc2)CC1 (racemic) [Example I-15],4.09^[a];,4.13^[b],–,–
OC(Cn1cncn1)(c1ccc(Cl)cc1F)C1(Oc2ccc(F)cc2F)CC1 (racemic) [Example I-16],3.44^[a],–,–,–
CC(=O)OC(Cn1cncn1)(c1ccc(F)cc1F)C1(Oc2ccc(Cl)cc2)CC1 (racemic) [Example I-17],3.47^[a];,3.47^[b],–,–
OC(Cn1cncn1)(c1ccc(F)cc1F)C1(Oc2c(F)cccc2F)CC1 (racemic) [Example I-18],3.02^[a],–,–,–
OC(Cn1cncn1)(c1ccc(F)cc1F)C1(Oc2c(Cl)cccc2Cl)CC1 (racemic) [Example I-19],3.76^[a],–,–,–
COC(Cn1cncn1)(c1ccc(F)cc1F)C1(Oc2c(Cl)cccc2Cl)CC1 (racemic) [Example I-20],4.06^[a],–,–,–
COC(Cn1cncn1)(c1ccc(F)cc1F)C1(Oc2c(F)cccc2F)CC1 (racemic) [Example I-21],3.48^[a],–,–,–
OC(Cn1cncn1)(c1ccc(F)cc1F)C1(Oc2c(F)cccc2Cl)CC1 (racemic) [Example I-22],3.39^[a],–,–,–
COC(Cn1cncn1)(c1ccc(F)cc1F)C1(Oc2c(F)cccc2Cl)CC1 (racemic) [Example I-23],3.78^[a],–,–,–
OC(Cn1cncn1)(c1ccc(F)cc1F)C1(Oc2c(F)cccc2Br)CC1 (racemic) [Example I-24],3.51^[a],–,–,–
COC(Cn1cncn1)(c1ccc(F)cc1F)C1(Oc2c(F)cccc2Br)CC1 (racemic) [Example I-25],3.83^[a],–,–,–
COC(Cn1cncn1)(c1ccc(F)cc1F)C1(Oc2ccc(F)cc2F)CC1 (racemic) [Example I-26],3.44^[a],–,–,–
OC(Cn1cncn1)(c1ccc(Cl)cc1F)C1(Oc2ccc(Cl)cc2)CC1 (racemic) [Example I-27],3.94^[a],–,–,–
COC(Cn1cncn1)(c1ccc(Cl)cc1F)C1(Oc2ccc(Cl)cc2)CC1 (racemic) [Example I-28],4.29^[a],–,–,–
OC(Cn1cncn1)(c1ccc(Cl)cc1F)C1(Oc2ccc(Cl)cc2F)CC1 (racemic) [Example I-29],3.89^[a],–,–,–
CCOC(Cn1cncn1)(c1ccc(F)cc1F)C1(Oc2ccc(Cl)cc2)CC1 (racemic) [Example I-30],4.32^[a],–,–,–
"OC(Cn1cncn1)(c1ccc(F)cc1F)C1(Oc2ccc(Cl)cc2)CC1 (single isomer, unassigned) [Example I-41]",3.48^[a],–,–,–

# Other lines, results leading:
LogP [1],LogP [2],chromatographic logP [1],chromatographic logP [2],SMILES
3.90^[a],–,–,–,C#CCOC(Cn1cncn1)(c1ccc(F)cc1F)C1(Oc2ccc(Cl)cc2)CC1 (racemic) [Example I-31]
4.73^[a],–,–,–,CCCOC(Cn1cncn1)(c1ccc(F)cc1F)C1(Oc2ccc(Cl)cc2)CC1 (racemic) [Example I-32]
4.34^[a],–,–,–,C=CCOC(Cn1cncn1)(c1ccc(F)cc1F)C1(Oc2ccc(Cl)cc2)CC1 (racemic) [Example I-33]
5.68^[a],–,–,–,C[Si](C)(C)COC(Cn1cncn1)(c1ccc(F)cc1F)C1(Oc2ccc(Cl)cc2)CC1 (racemic) [Example I-34]
4.71^[a],–,–,–,Fc1ccc(C(Cn2cncn2)(OCC2CC2)C2(Oc3ccc(Cl)cc3)CC2)c(F)c1 (racemic) [Example I-35]
3.81^[a],–,–,–,COC(Cn1cncn1)(c1ccc(F)cc1F)C1(Oc2ccc(Cl)cc2)CC1 (racemic) [Example I-36]
5.11^[a],–,–,–,CC(C)COC(Cn1cncn1)(c1ccc(F)cc1F)C1(Oc2ccc(Cl)cc2)CC1 (racemic) [Example I-37]
3.70^[a],–,–,–,OC(Cn1cncn1)(c1ccc(F)cc1F)C1(Oc2ccc(C(F)(F)F)cc2)CC1 (racemic) [Example I-38]
3.55^[a],–,–,–,OC(Cn1cncn1)(c1ccc(F)cc1F)C1(Oc2cccc(Cl)c2)CC1 (racemic) [Example I-39]
3.63^[a],–,–,–,OC(Cn1cncn1)(c1ccc(F)cc1F)C1(Oc2ccc(Cl)c(F)c2)CC1 (racemic) [Example I-40]
5.08^[a],–,–,–,Fc1cc(Cl)ccc1C1(C2(Oc3ccc(Cl)cc3)CC2)CO1 (racemic) [Example V-22]
5.00^[a],–,–,–,Fc1cc(Cl)ccc1OC1(C2(c3ccc(Cl)cc3F)CO2)CC1 (racemic) [Example V-23]
4.89^[a],–,–,–,Fc1ccc(C2(C3(Oc4ccc(Br)c(F)c4)CC3)CO2)c(F)c1 (racemic) [Example V-24]
4.24^[a],–,–,–,Fc1ccc(C2(C3(Oc4ccc(OC(F)F)cc4)CC3)CO2)c(F)c1 (racemic) [Example V-25]
4.44^[a],–,–,–,Fc1ccc(C2(C3(Oc4cccc(Cl)c4F)CC3)CO2)c(F)c1 (racemic) [Example V-26]
4.36^[a],–,–,–,Fc1ccc(C2(C3(Oc4ccc(F)c(F)c4)CC3)CO2)c(F)c1 (racemic) [Example V-27]
–,–,4.57,4.58,"Fc1ccc(C2(C3(Oc4ccc(Cl)cc4)CC3)CO2)c(F)c1 (centres unmarked) [Example V-1, 2-[1-(4-chlorophenoxy)cyclopropyl]-2-(2,4-difluorophenyl)oxirane]"
4.50^[a]; 4.50^[b],4.50^[a]; 4.50^[b],–,–,Fc1ccc(C2(C3(Oc4ccc(Cl)cc4F)CC3)CO2)c(F)c1 (centres unmarked) [Example V-2]
4.45,4.44,–,–,Fc1ccc(C2(C3(Oc4ccc(F)cc4Cl)CC3)CO2)c(F)c1 (centres unmarked) [Example V-3]

LogP [1],LogP [2],chromatographic logP [1],chromatographic logP [2],SMILES
3.99^[a],–,–,–,Fc1ccc(C2(C3(Oc4ccccc4F)CC3)CO2)c(F)c1 (centres unmarked) [Example V-4]
4.36,4.43,–,–,Fc1ccc(C2(C3(Oc4ccccc4Br)CC3)CO2)c(F)c1 (centres unmarked) [Example V-5]
4.63,4.71,–,–,Fc1ccc(C2(C3(Oc4cccc(Br)c4)CC3)CO2)c(F)c1 (centres unmarked) [Example V-6]
4.66,4.74,–,–,Fc1ccc(C2(C3(Oc4ccc(Br)cc4)CC3)CO2)c(F)c1 (centres unmarked) [Example V-7]
4.58,4.66,–,–,Fc1ccc(C2(C3(Oc4ccccc4I)CC3)CO2)c(F)c1 (centres unmarked) [Example V-8]
4.82,4.90,–,–,Fc1ccc(C2(C3(Oc4cccc(I)c4)CC3)CO2)c(F)c1 (centres unmarked) [Example V-9]
4.87,4.95,–,–,Fc1ccc(C2(C3(Oc4ccc(I)cc4)CC3)CO2)c(F)c1 (centres unmarked) [Example V-10]
4.57,4.65,–,–,Fc1ccc(C2(C3(Oc4ccc(Br)cc4F)CC3)CO2)c(F)c1 (centres unmarked) [Example V-11]
–,5.40 and 5.48,–,–,Cc1cc(I)ccc1OC1(C2(c3ccc(F)cc3F)CO2)CC1 (centres unmarked) [Example V-12]
4.14,4.21,–,–,N#Cc1cc(I)ccc1OC1(C2(c3ccc(F)cc3F)CO2)CC1 (centres unmarked) [Example V-13]
5.25^[a]; 5.25^[b],5.25^[a]; 5.25^[b],–,–,Cc1cc(Br)ccc1OC1(C2(c3ccc(F)cc3F)CO2)CC1 (centres unmarked) [Example V-14]
4.70,4.86,–,–,Fc1ccc(C2(C3(Oc4ccc(OC(F)(F)F)cc4)CC3)CO2)c(F)c1 (centres unmarked) [Example V-15]
5.23,5.24,–,–,Fc1ccc(C2(C3(Oc4ccc(SC(F)(F)F)cc4)CC3)CO2)c(F)c1 (centres unmarked) [Example V-16]
4.56^[a],–,–,–,Fc1ccc(OC2(C3(c4ccc(Cl)cc4F)CO3)CC2)c(F)c1 (centres unmarked) [Example V-17]
4.11^[a],–,–,–,Fc1ccc(C2(C3(Oc4c(F)cccc4F)CC3)CO2)c(F)c1 (centres unmarked) [Example V-18]
4.80^[a],–,–,–,Fc1ccc(C2(C3(Oc4c(Cl)cccc4Cl)CC3)CO2)c(F)c1 (centres unmarked) [Example V-19]
4.49^[a],–,–,–,Fc1ccc(C2(C3(Oc4c(F)cccc4Cl)CC3)CO2)c(F)c1 (centres unmarked) [Example V-20]
4.59^[a],–,–,–,Fc1ccc(C2(C3(Oc4c(F)cccc4Br)CC3)CO2)c(F)c1 (centres unmarked) [Example V-21]
